In ChEMBL document CHEMBL1201862, “PubChem BioAssay data set” (2004):
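How tested: cells in 96-well plates exposed to compound for 48 hours at five concentrations. Abbreviation: GI50, concentration required for 50% inhibition of growth.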 The source made the active and inactive calls. No stated cut-off is given here; in the data, active = GI50 up to about 1.1 µM and inactive = higher.

Experiments:
Assay in all cases: inhibition of tumour cell growth, NCI panel, 48 h
MOLT-4 = test system: MOLT-4
NCI/ADR-RES = test system: NCI/ADR-RES
UACC-257 = test system: UACC-257
SF-295 = test system: SF-295
NCI-H522 = test system: NCI-H522
U-251 = test system: U-251
CCRF-CEM = test system: CCRF-CEM
M14 = test system: M14
SF-268 = test system: SF-268
SW-620 = test system: SW-620
SNB-75 = test system: SNB-75
TK-10 = test system: TK-10
NCI-H226 = test system: NCI-H226
ACHN = test system: ACHN
OVCAR-3 = test system: OVCAR-3
HOP-62 = test system: HOP-62
KM12 = test system: KM12
BT-549 = test system: BT-549
SK-MEL-28 = test system: SK-MEL-28
Hs-578T = test system: Hs-578T

SMILES | GI50 (MOLT-4) | GI50 (NCI/ADR-RES) | GI50 (UACC-257) | GI50 (SF-295) | GI50 (NCI-H522) | GI50 (U-251) | GI50 (CCRF-CEM) | GI50 (M14) | GI50 (SF-268) | GI50 (SW-620) | GI50 (SNB-75) | GI50 (TK-10) | GI50 (NCI-H226) | GI50 (ACHN) | GI50 (OVCAR-3) | GI50 (HOP-62) | GI50 (KM12) | GI50 (BT-549) | GI50 (SK-MEL-28) | GI50 (Hs-578T)
Nc1nccc2c1ncn2C1C=C(CO)C(O)C1O (stereo unspecified) | 2.55 µM (inactive) | 7.05 µM (inactive) | 18.4 µM (inactive) | > 100 µM (inactive) | > 100 µM (inactive) | 51.8 µM (inactive) | 2.76 µM (inactive) | 70 µM (inactive) | > 96.4 µM (inactive) | 1.75 µM (inactive) | 62.1 µM (inactive) | > 95.5 µM (inactive) | 49.1 µM (inactive) | 20.6 µM (inactive) | > 94.4 µM (inactive) | 30.3 µM (inactive) | 1.6 µM (inactive) | 83.2 µM (inactive) | 2.73 µM (inactive) | 
Cn1c(=O)cc(NNc2ccc(Br)cc2)[nH]c1=O | 0.558 µM (active) | 31.1 µM (inactive) | 15.3 µM (inactive) | 13.4 µM (inactive) |  | 3.05 µM (inactive) | 0.431 µM (active) | 15.5 µM (inactive) |  | 4.5 µM (inactive) |  | 20.3 µM (inactive) | 18.2 µM (inactive) | 14 µM (inactive) | 3.99 µM (inactive) | 12.8 µM (inactive) | 2.24 µM (inactive) | 16.9 µM (inactive) | 17.3 µM (inactive) | 3.88 µM (inactive)
CC1CCC2C(C)C(OC(=O)CCC(=O)O)OC3OC4(C)CCC1C32OO4 (stereo unspecified) | 0.346 µM (active) | 4.62 µM (inactive) | 2.17 µM (inactive) | 15.8 µM (inactive) |  | 2.98 µM (inactive) | 3.78 µM (inactive) | 17.2 µM (inactive) | 16.7 µM (inactive) | 1.57 µM (inactive) | 19.3 µM (inactive) | 2.99 µM (inactive) |  | 4.52 µM (inactive) | 5.52 µM (inactive) | 16.6 µM (inactive) | 1.33 µM (inactive) | 11.2 µM (inactive) | 37.5 µM (inactive) | 16 µM (inactive)
COc1cc(OC)c2c3c(OC)cc(OC)c4c(=O)c(O)c(C[C@@H](C)O)c(c5c(C[C@@H](C)O)c(O)c(=O)c1c25)c43 | 15.3 µM (inactive) | 30.3 µM (inactive) | 34.3 µM (inactive) | 40.2 µM (inactive) |  | 23.5 µM (inactive) |  | 17.4 µM (inactive) | 18.9 µM (inactive) | 15.5 µM (inactive) | 14.2 µM (inactive) | 53 µM (inactive) | 19.6 µM (inactive) | 33.4 µM (inactive) | 1.02 µM (active) | 22.4 µM (inactive) | 23.2 µM (inactive) | 18.7 µM (inactive) | 20.1 µM (inactive) | 
Cc1ccc(N2C(=O)C=C(C3=C(O)C(=O)N(c4ccc(C)cc4)C3=O)C2=O)cc1 | > 100 µM (inactive) | > 100 µM (inactive) | > 100 µM (inactive) | > 100 µM (inactive) |  | > 100 µM (inactive) | > 100 µM (inactive) | > 100 µM (inactive) | > 100 µM (inactive) | > 100 µM (inactive) | 42.3 µM (inactive) | > 100 µM (inactive) | > 100 µM (inactive) | > 100 µM (inactive) | > 100 µM (inactive) | > 100 µM (inactive) |  | > 100 µM (inactive) | > 100 µM (inactive) | 
COC(=O)C1C(=O)CC(C)(O)C(C(=O)OC)C1c1ccc(N(C)C)cc1 (stereo unspecified) | > 100 µM (inactive) | > 100 µM (inactive) | > 100 µM (inactive) | > 100 µM (inactive) | > 100 µM (inactive) | > 100 µM (inactive) | > 100 µM (inactive) |  | > 100 µM (inactive) | > 100 µM (inactive) | > 100 µM (inactive) | > 100 µM (inactive) | > 100 µM (inactive) | > 100 µM (inactive) | > 100 µM (inactive) | > 100 µM (inactive) | > 100 µM (inactive) | > 100 µM (inactive) | > 100 µM (inactive) | 
O=C(C/N=C(\CN(c1ccccc1)c1ccccc1)Oc1c([N+](=O)[O-])cc([N+](=O)[O-])cc1[N+](=O)[O-])N1CCNCC1 | > 100 µM (inactive) |  | > 100 µM (inactive) | > 100 µM (inactive) | > 100 µM (inactive) | > 100 µM (inactive) | > 100 µM (inactive) | > 100 µM (inactive) | > 100 µM (inactive) | > 100 µM (inactive) | 10.5 µM (inactive) | > 100 µM (inactive) | > 100 µM (inactive) | > 100 µM (inactive) | > 100 µM (inactive) | > 100 µM (inactive) | > 100 µM (inactive) | > 100 µM (inactive) | > 100 µM (inactive) | 25.4 µM (inactive)
O=c1cc(-c2ccccc2)nc(-n2[nH]c3c(c2=O)CCCC3)[nH]1 | 2.9 µM (inactive) |  | 5.86 µM (inactive) | 4.33 µM (inactive) | 12.1 µM (inactive) | 2.55 µM (inactive) | 0.769 µM (active) | 5.68 µM (inactive) | 2.7 µM (inactive) | 4.24 µM (inactive) | 3.13 µM (inactive) | 5 µM (inactive) | 3.82 µM (inactive) | 3.66 µM (inactive) |  |  | 13.3 µM (inactive) | 9.38 µM (inactive) | 4.29 µM (inactive) | 23.4 µM (inactive)
CC[C@@H]1CC[C@@H]2[C@H](CC[C@]3(C)[C@@H](OS(=O)(=O)c4ccc(C)cc4)CC[C@@H]23)[C@H]1COS(=O)(=O)c1ccc(C)cc1 | > 100 µM (inactive) | > 100 µM (inactive) | > 100 µM (inactive) | > 100 µM (inactive) |  | > 100 µM (inactive) | > 100 µM (inactive) | > 100 µM (inactive) | > 100 µM (inactive) | > 100 µM (inactive) |  | > 100 µM (inactive) | > 100 µM (inactive) | > 100 µM (inactive) |  |  |  | > 100 µM (inactive) | > 100 µM (inactive) | > 100 µM (inactive)
O=C(NC1CCCCC1)c1nn[nH]c1Cl | > 100 µM (inactive) | > 100 µM (inactive) | > 100 µM (inactive) | > 100 µM (inactive) |  | > 100 µM (inactive) | > 100 µM (inactive) | > 100 µM (inactive) | > 100 µM (inactive) | > 100 µM (inactive) |  | > 100 µM (inactive) |  | > 100 µM (inactive) | > 100 µM (inactive) | > 100 µM (inactive) | > 100 µM (inactive) | > 100 µM (inactive) | > 100 µM (inactive) | > 100 µM (inactive)
NC12CC3C4CC5(N)CC3C(C1)C(C5)C4C2 | > 100 µM (inactive) | > 100 µM (inactive) | > 100 µM (inactive) | > 100 µM (inactive) | > 100 µM (inactive) | > 100 µM (inactive) | > 100 µM (inactive) | > 100 µM (inactive) | > 100 µM (inactive) | > 100 µM (inactive) |  | > 100 µM (inactive) | > 100 µM (inactive) | > 100 µM (inactive) | > 100 µM (inactive) | > 100 µM (inactive) | > 100 µM (inactive) | > 100 µM (inactive) | > 100 µM (inactive) | > 100 µM (inactive)
Cc1ccc(S(=O)(=O)N2CCN(CCN(C)CCN3CCN(S(=O)(=O)c4ccc(C)cc4)CC3)CC2)cc1 | 14.1 µM (inactive) | 20 µM (inactive) | 16.4 µM (inactive) | 17.9 µM (inactive) | 19.8 µM (inactive) | 17.3 µM (inactive) | 18.7 µM (inactive) | 17.2 µM (inactive) | 17.2 µM (inactive) | 16.9 µM (inactive) |  | 16.1 µM (inactive) | 25.7 µM (inactive) | 17.9 µM (inactive) | 16.7 µM (inactive) | 17.8 µM (inactive) | 15.1 µM (inactive) | 16.9 µM (inactive) | 17.1 µM (inactive) | 22.3 µM (inactive)
CC(=O)OC12c3ccccc3C(c3ccccc31)C1C(=O)N(N=C(C)C)C(=O)C12 (stereo unspecified) | > 100 µM (inactive) | > 100 µM (inactive) | > 100 µM (inactive) | > 100 µM (inactive) |  | > 100 µM (inactive) | > 100 µM (inactive) | > 100 µM (inactive) | > 100 µM (inactive) | > 100 µM (inactive) | 51.9 µM (inactive) | > 100 µM (inactive) | > 100 µM (inactive) |  | > 100 µM (inactive) | > 100 µM (inactive) | > 100 µM (inactive) | > 100 µM (inactive) | > 100 µM (inactive) | > 100 µM (inactive)
CC(C)=CCc1cc(C2COc3cc4c(c(O)c3C2=O)C=CC(C)(C)O4)c(O)cc1O (stereo unspecified) | 5.61 µM (inactive) | 22.6 µM (inactive) | 12.8 µM (inactive) | 17.8 µM (inactive) | 11.6 µM (inactive) | 16 µM (inactive) | 7.53 µM (inactive) | 13.4 µM (inactive) | 13.2 µM (inactive) | 22 µM (inactive) | 19.1 µM (inactive) | 16.8 µM (inactive) |  | 16.7 µM (inactive) | 14.3 µM (inactive) | 17.8 µM (inactive) | 14.9 µM (inactive) | 16.3 µM (inactive) | 22.4 µM (inactive) | 17.8 µM (inactive)
COc1cccc(-c2nc(O)c3ccccc3n2)c1OC | > 100 µM (inactive) | > 100 µM (inactive) | > 100 µM (inactive) | > 100 µM (inactive) |  | > 100 µM (inactive) | > 100 µM (inactive) | > 100 µM (inactive) | > 100 µM (inactive) | > 100 µM (inactive) | 46.1 µM (inactive) |  | > 100 µM (inactive) | > 100 µM (inactive) | > 100 µM (inactive) | > 100 µM (inactive) | > 100 µM (inactive) | > 100 µM (inactive) |  | > 100 µM (inactive)
